Experimental data as given in US20210386732A1, “SEMI-SOLID ANTI-HISTAMINE COMPOSITIONS AND METHODS OF MAKING AND USING THEREOF” (SEATTLE GUMMY COMPANY, priority 2018, published 2021).

How the values were obtained:
[1] = cited from earlier work
[2] = Complex formation with β-cyclodextrin, association constant (ITC measurements for cetirizine); assay type: binding; details: beta versus alpha and gamma cyclodextrin
Text: Alpha cyclodextrin consists of a ring of 6 glucose units while beta has 7 glucose units in a ring and gamma has 8 glucose units in a ring. The ring structures form a crown. The inside of the crown is able to complex with APIs in the current application. […] Either the phenyl group or the 4-chlorophenyl group fit inside the ring structure. The inside cavity of cylcodextrins is largely hydrophobic, which is favorable for APIs' hydrophobic aromatic systems. The formation of the chelate structure is endothermically favorable due to electrostatic interactions of the pi system of the aromatic moiety with in the hydrophobic cavity and electronic interaction with the hydrogen atoms and glycidyl ether bonds. It is these electronic interactions between these systems of the cyclodextrin and the pi system that gives the favorable heat of formation. […] In one embodiment, the complexing composition consists essentially of beta-cyclodextrin.
Diphenhydramine forms complexes with cylcodextrins. The mechanism is similar to that of cetirizine. […] In one embodiment, the complexing agent comprises beta cyclodextrin, which is configured to form antihistamine complex. In some embodiments, the complexing agent comprises alpha-cyclodextrin, gamma-cyclodextrin, or a combination there. The action of coordination with diphenhydramine is similar to that of cetirizine.

[3] = cited from earlier work; remark: listed apart in the source
[4] = cited from earlier work; remark: listed apart in the source
[5] = per 1 gram of water; cited from earlier work

Row | Compound | association constant K(a) of the complex with β-cyclodextrin [1] [M⁻¹] | formation constant with beta cyclodextrin relative to alpha and gamma cyclodextrin [2] | association constant K(a) of the complex with α-cyclodextrin [3] [M⁻¹] | association constant K(a) of the complex with γ-cyclodextrin [4] [M⁻¹] | amount that dissolves into 1 gram of water [5]
1 | O=C(O)COCCN1CCN(C(c2ccccc2)c2ccc(Cl)cc2)CC1 (stereo not drawn) [Cetirizine, cetirizine] | 5641 ± 358 | nearly four times | 1434 ± 60 | 1200 ± 50 | –
2 | O=C(CO)[C@@H](O)[C@H](O)[C@H](O)CO [fructose] | – | – | – | – | ~4 grams
3 | OC[C@H]1O[C@@](CO)(O[C@H]2O[C@H](CO)[C@@H](O)[C@H](O)[C@H]2O)[C@@H](O)[C@@H]1O [sucrose, O-α-D-glucopyranosyl-(1→2)-β-D-fructofuranoside] | – | – | – | – | More than 2 grams
